Measurements as given in patent US9504251B2, “Pesticidal compositions and related methods” (Dow AgroSciences LLC, priority 2014, dated 2016).
Like-named read-outs stand apart in the source and are kept apart here.

Legend:
[1] = system: Green Peach Aphid (Myzus persicae) (GPA) (MYZUPE); experiment: Green peach aphid (GPA) foliar spray bioassay on cabbage seedlings; type: in vivo; settings: 72 h, 200 ppm foliar spray on cabbage seedlings, graded after three days, read-out: GPA % Control (or Mortality) rating
Procedure: Bioassay for GPA was prepared as follows: Cabbage seedlings grown in 3-inch pots, with 2-3 small (3-5 cm) true leaves, were used as test substrate. The seedlings were infested with 20-50 GPA (adult and nymph stages) one day prior to chemical application. Four pots with individual seedlings were used for each treatment. The tested compounds (2 mg) were dissolved in 2 mL of acetone/methanol (1:1) solvent to form stock solutions of 1000 ppm tested compound. The stock solutions were diluted five times with an aqueous solution containing 0.025% TWEEN® 20 surfactant, which is polyoxyethylene (20) sorbitan monolaurate, to obtain the solution at 200 ppm tested compound. A hand-held aspirator-type sprayer was used for spraying the solution to both sides of cabbage leaves until runoff. The control plants (solvent check) were sprayed with the diluent only containing 20% by volume of acetone/methanol (1:1) solvent. Treated plants were held in a holding room for three days at approximately 25° C. and ambient relative humidity (RH) prior to grading. Evaluation was conducted by counting the number of live aphids per plant under a microscope. Percent control was measured by using Abbott's correction formula (W. S. Abbott, “A Method of Computing the Effectiveness of an Insecticide,” J. Econ. Entomol. 18 (1925), pp. 265-267) as follows. Corrected % Control=100*(X−Y)/X
X=No. of live aphids on solvent check plants and
Y=No. of live aphids on treated plants
(§1) The comparative compounds were tested for insecticidal activities against GPA and WF pests using the same test protocols described above for the disclosed compounds.

[2] = system: Sweetpotato Whitefly-crawler (Bemisia tabaci) (WF) (BEMITA); experiment: Sweetpotato whitefly-crawler (WF) foliar spray assay on cotton plants; type: in vivo; settings: 216 h, 200 ppm foliar spray on cotton plants, graded after 9 days, read-out: WF % Control (or Mortality) rating
Procedure: Foliar spray assay for WF was prepared as follows: Cotton plants (Gossypium hirsutum) grown in 3-inch pots, with 1 small (4-5 cm) true leaf, were used as test substrate. The plants were infested with 200-400 whitefly eggs 4-5 days prior to chemical application. Four pots with individual plants were used for each treatment. Tested compounds (2 mg) were dissolved in 1 mL of acetone solvent, forming stock solutions of 2000 ppm tested compound.
The stock solutions were diluted ten times with 0.025% TWEEN® 20 surfactant in H2O (diluents) to obtain the solution at 200 ppm tested compound. A hand-held aspirator-type sprayer was used for spraying the solution to both sides of cotton leaves until runoff. The control plants (solvent check) were sprayed with the diluent only containing 10% by volume of acetone solvent. Treated plants were held in a holding room for 9 days at approximately 25° C. and ambient relative humidity (RH) prior to grading. Evaluation was conducted by counting the number of live 3-4 nymph stage per plant under a microscope. Percent control was measured by using Abbott's correction formula (W. S. Abbott, “A Method of Computing the Effectiveness of an Insecticide,” J. Econ. Entomol. 18 (1925), pp. 265-267) as follows. Corrected % Control=100*(X−Y)/X
X=No. of live nymphs on solvent check plants and
Y=No. of live nymphs on treated plants.
as §1

[3] = Abbott-corrected % control, disclosed compounds (TABLE 2)
[4] = same protocol, comparative compounds (TABLE 3)

Row | Structure (SMILES) | mortality at 200 ppm [1, 3] [%] | mortality at 200 ppm [2, 3] [%] | mortality at 200 ppm [1, 4] [%] | mortality at 200 ppm [2, 4] [%]
1 | O=C1c2cn(-c3cccnc3)nc2CCN1CC=NOCc1ccccc1 (racemic) [Compound P27, 2-(4-oxo-2-(pyridin-3-yl)-2,4,6,7-tetrahydro-5H-pyrazolo[4,3-c]pyridin-5-yl)acetaldehyde O-benzyl oxime] | 80 to 100 | 80 to 100 |  | 
2 | O=C1c2cn(-c3cccnc3)nc2CCN1CC(=NOCc1ccccc1)c1ccccc1 (racemic) [Compound P36, 5-(2-((benzyloxy)imino)-2-phenylethyl)-2-(pyridin-3-yl)-2,5,6,7-tetrahydro-4H-pyrazolo[4,3-c]pyridin-4-one] | 0 to 80 | 80 to 100 |  | 
3 | CON=CCN1CCc2nn(-c3cccnc3)cc2C1=O (single isomer, unassigned) [Compound P26, 2-(4-oxo-2-(pyridin-3-yl)-2,4,6,7-tetrahydro-5H-pyrazolo[4,3-c]pyridin-5-yl)acetaldehyde O-methyl oxime] | 80 to 100 |  |  | 
4 | CON=C(C)CN1CCc2nn(-c3cccnc3)cc2C1=O (single isomer, unassigned) [Compound P30, 5-(2-(methoxyimino)propyl)-2-(pyridin-3-yl)-2,5,6,7-tetrahydro-4H-pyrazolo[4,3-c]pyridin-4-one] | 80 to 100 | 80 to 100 |  | 
5 | CC(CN1CCc2nn(-c3cccnc3)cc2C1=O)=NOCc1ccccc1 (single isomer, unassigned) [Compound P31, 5-(2-((benzyloxy)imino)propyl)-2-(pyridin-3-yl)-2,5,6,7-tetrahydro-4H-pyrazolo[4,3-c]pyridin-4-one] | 80 to 100 | 80 to 100 |  | 
6 | CON=C(CN1CCc2nn(-c3cccnc3)cc2C1=O)c1ccccc1 (single isomer, unassigned) [Compound P32, 5-(2-(methoxyimino)-2-phenylethyl)-2-(pyridin-3-yl)-2,5,6,7-tetrahydro-4H-pyrazolo[4,3-c]pyridin-4-one] | 80 to 100 | 0 to 80 |  | 
7 | CON=C(CN1CCc2nn(-c3cccnc3)cc2C1=O)c1cccc(C(F)(F)F)c1 (single isomer, unassigned) [Compound P34, 5-(2-(methoxyimino)-2-(3-(trifluoromethyl)phenyl)ethyl)-2-(pyridin-3-yl)-2,5,6,7-tetrahydro-4H-pyrazolo[4,3-c]pyridin-4-one] | 80 to 100 |  |  | 
8 | CON=C(CN1CCc2nn(-c3cccnc3)cc2C1=O)c1ccc(C(F)(F)F)cc1 (single isomer, unassigned) [Compound P35, 5-(2-(methoxyimino)-2-(4-(trifluoromethyl)phenyl)ethyl)-2-(pyridin-3-yl)-2,5,6,7-tetrahydro-4H-pyrazolo[4,3-c]pyridin-4-one] | 80 to 100 |  |  | 
9 | O=C1c2cn(-c3cccnc3)nc2CCN1CC(=NOCc1ccccc1)c1cccc(C(F)(F)F)c1 (single isomer, unassigned) [Compound P38, 5-(2-((benzyloxy)imino)-2-(3-(trifluoromethyl)phenyl)ethyl)-2-(pyridin-3-yl)-2,5,6,7-tetrahydro-4H-pyrazolo[4,3-c]pyridin-4-one] | 0 to 80 | 0 to 80 |  | 
10 | O=C1c2cn(-c3cccnc3)nc2CCN1CC(=NOCc1ccccc1)c1ccc(C(F)(F)F)cc1 (single isomer, unassigned) [Compound P39, 5-(2-((benzyloxy)imino)-2-(4-(trifluoromethyl)phenyl)ethyl)-2-(pyridin-3-yl)-2,5,6,7-tetrahydro-4H-pyrazolo[4,3-c]pyridin-4-one] | 0 to 80 | 0 to 80 |  | 
11 | O=C1c2cn(-c3ccccn3)nc2CCN1c1ccc(C(F)(F)F)cn1 [CE6, 2-(2-Pyridyl)-5-[5-(trifluoromethyl)-2-pyridyl]-6,7-dihydropyrazolo[4,3-c]pyridin-4-one, reference compound] |  |  | 0 to 80 | < 0
12 | CON(C)C(=O)CN1CCc2nn(-c3cccnc3)cc2C1=O [Compound CA3, N-methoxy-N-methyl-2-(4-oxo-2-(pyridin-3-yl)-2,4,6,7-tetrahydro-5H-pyrazolo[4,3-c]pyridin-5-yl)acetamide] | 80 to 100 | 80 to 100 |  | 
13 | CC(=O)CN1CCc2nn(-c3cccnc3)cc2C1=O [Compound CA4, 5-(2-oxopropyl)-2-(pyridin-3-yl)-2,5,6,7-tetrahydro-4H-pyrazolo[4,3-c]pyridin-4-one] | 80 to 100 |  |  | 
14 | O=C1NCCc2nn(-c3ccccn3)cc21 [Compound CE1, 2-(pyridin-2-yl)-6,7-dihydro-2H-pyrazolo[4,3-c]pyridin-4(5H)-one, reference compound] |  |  | < 0 | 0 to 80
15 | CSCN1CCc2nn(-c3ccncc3)cc2C1=O [Compound CE2, 5-(methylsulfanylmethyl)-2-(4-pyridyl)-6,7-dihydropyrazolo[4,3-c]pyridin-4-one, reference compound] |  |  | 0 to 80 | 0 to 80
16 | CSCN1CCc2nn(-c3ccccn3)cc2C1=O [Compound CE3, 5-(Methylsulfanylmethyl)-2-(2-pyridyl)-6,7-dihydropyrazolo[4,3-c]pyridin-4-one, reference compound] |  |  | < 0 | < 0
17 | O=C1c2cn(-c3ccccn3)nc2CCN1c1cccc(OC(F)(F)F)c1 [Compound CE4, 2-(2-Pyridyl)-5-[3-(trifluoromethoxy)phenyl]-6,7-dihydropyrazolo[4,3-c]pyridin-4-one, reference compound] |  |  | < 0 | < 0
18 | O=C1c2cn(-c3ccccn3)nc2CCN1c1cccc(C(F)(F)F)n1 [Compound CE5, reference compound] |  |  | < 0 | < 0
19 | O=C1c2cn(-c3ccccn3)nc2CCN1c1cc(C(F)(F)F)ccn1 [Compound CE7, 2-(2-Pyridyl)-5-[4-(trifluoromethyl)-2-pyridyl]-6,7-dihydropyrazolo[4,3-c]pyridin-4-one, reference compound] |  |  | 0 to 80 | < 0
20 | O=C1c2cn(-c3cccnc3)nc2CCN1CC1CC1 [Compound F1, 5-(cyclopropylmethyl)-2-(pyridin-3-yl)-6,7-dihydro-2H-pyrazolo[4,3-c]pyridin-4(5H)-one] | 80 to 100 | 80 to 100 |  | 
21 | O=C1NCCc2nn(-c3cccnc3)cc21 [Compound F2, 2-(pyridin-3-yl)-6,7-dihydro-2H-pyrazolo[4,3-c]pyridin-4(5H)-one] | 80 to 100 | 0 to 80 |  | 
22 | O=C1c2cn(-c3cccnc3)nc2CCN1Cc1ccc(F)cc1 [Compound F3, 5-(4-fluorobenzyl)-2-(pyridin-3-yl)-6,7-dihydro-2H-pyrazolo[4,3-c]pyridin-4(5H)-one] |  | 0 to 80 |  | 
23 | O=C1c2cn(-c3cccnc3)nc2CCN1c1cccc(C(F)(F)F)c1 [Compound F4, 2-(3-Pyridyl)-5-[3-(trifluoromethyl)phenyl]-6,7-dihydropyrazolo[4,3-c]pyridin-4-one] | 80 to 100 | 0 to 80 |  | 
24 | O=C1c2cn(-c3cccnc3)nc2CCN1c1ccnc(C(F)(F)F)c1 [Compound F5, 2-(3-Pyridyl)-5-[2-(trifluoromethyl)-4-pyridyl]-6,7-dihydropyrazolo[4,3-c]pyridin-4-one] | 80 to 100 | 0 to 80 |  | 
25 | O=C(CN1CCc2nn(-c3cccnc3)cc2C1=O)c1cccc(C(F)(F)F)c1 [Compound P20, 5-(2-oxo-2-(3-(trifluoromethyl)phenyl)ethyl)-2-(pyridin-3-yl)-2,5,6,7-tetrahydro-4H-pyrazolo[4,3-c]pyridin-4-one] | 80 to 100 |  |  | 
26 | O=C(CN1CCc2nn(-c3cccnc3)cc2C1=O)c1ccc(C(F)(F)F)cc1 [Compound P21, 5-(2-oxo-2-(4-(trifluoromethyl)phenyl)ethyl)-2-(pyridin-3-yl)-2,5,6,7-tetrahydro-4H-pyrazolo[4,3-c]pyridin-4-one] | 80 to 100 |  |  | 
